Measured values as given in paper PMC5982776, “The novel anti-androgen candidate galeterone targets deubiquitinating enzymes, USP12 and USP46, to control prostate cancer growth and survival” (Oncotarget, 2018).

How the values were obtained:
USP46 = USP46 (Homo sapiens, UniProt P62068); assay: Biacore SPR dose-dependent binding; IC50 from Ub-AMC enzyme inhibition with USP46/UAF1; format: biochemical
USP12 = USP12 (Homo sapiens, UniProt O75317); assay: Biacore SPR dose-dependent binding; IC50 from Ub-AMC enzyme inhibition with USP12/UAF1; format: biochemical
Sequence of USP12 (O75317 whole entry): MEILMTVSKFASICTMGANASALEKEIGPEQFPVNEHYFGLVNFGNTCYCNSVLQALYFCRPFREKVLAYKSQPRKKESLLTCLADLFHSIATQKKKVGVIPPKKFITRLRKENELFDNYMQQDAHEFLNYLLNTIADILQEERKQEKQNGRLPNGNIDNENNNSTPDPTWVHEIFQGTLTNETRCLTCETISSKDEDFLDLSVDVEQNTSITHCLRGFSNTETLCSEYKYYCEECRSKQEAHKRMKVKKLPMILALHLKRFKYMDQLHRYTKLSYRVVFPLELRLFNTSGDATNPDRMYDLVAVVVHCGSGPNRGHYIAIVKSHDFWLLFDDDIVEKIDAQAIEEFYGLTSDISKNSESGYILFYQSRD
Sequence of USP12 (Q8TAF3 whole entry partner): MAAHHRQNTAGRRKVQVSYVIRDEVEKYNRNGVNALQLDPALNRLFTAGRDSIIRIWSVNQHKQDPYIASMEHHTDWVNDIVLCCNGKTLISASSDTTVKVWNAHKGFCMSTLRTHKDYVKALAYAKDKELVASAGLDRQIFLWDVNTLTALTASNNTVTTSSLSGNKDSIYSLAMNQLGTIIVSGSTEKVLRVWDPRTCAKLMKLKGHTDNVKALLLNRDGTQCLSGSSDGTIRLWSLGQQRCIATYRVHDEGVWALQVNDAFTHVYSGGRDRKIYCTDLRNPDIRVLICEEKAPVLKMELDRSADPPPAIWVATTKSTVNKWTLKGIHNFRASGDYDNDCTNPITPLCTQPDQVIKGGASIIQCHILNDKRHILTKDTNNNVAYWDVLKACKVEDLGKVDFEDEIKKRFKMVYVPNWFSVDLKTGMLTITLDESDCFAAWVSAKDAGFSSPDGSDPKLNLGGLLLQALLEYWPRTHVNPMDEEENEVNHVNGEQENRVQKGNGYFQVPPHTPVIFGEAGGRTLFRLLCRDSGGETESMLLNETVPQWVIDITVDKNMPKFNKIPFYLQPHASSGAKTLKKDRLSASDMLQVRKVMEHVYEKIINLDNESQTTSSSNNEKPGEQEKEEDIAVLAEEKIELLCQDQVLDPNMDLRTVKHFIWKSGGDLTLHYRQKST

Sequence of USP46 (P62068 whole entry): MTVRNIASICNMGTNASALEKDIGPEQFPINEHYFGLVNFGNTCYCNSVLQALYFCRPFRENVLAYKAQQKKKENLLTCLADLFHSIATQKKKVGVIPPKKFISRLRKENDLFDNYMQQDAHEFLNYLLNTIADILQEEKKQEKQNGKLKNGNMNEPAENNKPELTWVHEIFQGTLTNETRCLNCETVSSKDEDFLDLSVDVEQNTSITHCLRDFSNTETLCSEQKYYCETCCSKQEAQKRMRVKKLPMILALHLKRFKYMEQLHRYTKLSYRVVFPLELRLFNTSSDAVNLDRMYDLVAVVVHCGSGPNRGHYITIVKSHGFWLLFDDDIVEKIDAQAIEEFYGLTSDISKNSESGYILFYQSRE
Sequence of USP46 (Q8TAF3 whole entry partner): as the sequence (Q8TAF3 whole entry partner) above

IC50 (USP46): 3.4 to 4.2 µM
IC50 (USP12): 2.1 to 3.4 µM
SMILES: C[C@]12CC[C@H](O)CC1=CC[C@@H]1[C@@H]2CC[C@]2(C)C(n3cnc4ccccc43)=CC[C@@H]12 [galeterone]
